According to publication PMC7822874, “Chemoprotective antimalarials identified through quantitative high-throughput screening of Plasmodium blood and liver stage parasites” (Scientific Reports, 2021):
Several values for one entry are separate records, joined by “and”; a condition that tells them apart may be missing. Identical values can stand only once. Like-named read-outs stand apart in the source and are kept apart here.

Tests used:
[1] = tested on: Plasmodium falciparum Dd2 asexual blood stage parasites; experiment: microbe, parasite or virus in culture; design: species or system Plasmodium falciparum Dd2 in human erythrocytes; single determination (one 11-point concentration-response curve); settings: Plasmodium falciparum, DD2, Erythrocyte, 72 h; read-out: AC50
[2] = in vitro; settings: human, hepg2 cells
[3] = tested on: HepG2-A16-CD81EGFP cells; settings: for HepG2 1uM growth rep1 / HepG2 1uM growth rep2: HepG2, 1 µM compound treatment (10 mM stocks); for HepG2 1uM growth rep1 / HepG2 3uM growth rep1: replicate 1, normalized; for HepG2 1uM growth rep1 / HepG2 1uM growth rep2 / HepG2 3uM growth rep1 / HepG2 3uM growth rep2: average of 2 wells; for HepG2 1uM growth rep2 / HepG2 3uM growth rep2: replicate 2, normalized; for HepG2 3uM growth rep1 / HepG2 3uM growth rep2: HepG2, 3 µM compound treatment (10 mM stocks)
[4] = tested on: HepG2; settings: human, hepg2 cells, 48 h
[5] = tested on: P. berghei-ANKA-GFP-LucCON liver stage parasites in HepG2-A16-CD81EGFP cells; experiment: P. berghei liver stage Pb-Luc assay, Method 1 (UCSD, 1536-well); type: cell-based, Plasmodium berghei; settings: for activity at 1 µM / activity at 3 µM: Plasmodium berghei, 48 h, average of 2 wells on a 1536 well plate
[6] = in vitro; settings: human, HepG2-A16-CD81EGFP cells, uninfected
[7] = P. berghei liver stage, 1 µM compound treatment (10 mM stocks), replicate 1, normalized, read-out: PbLuc 1uM growth rep1
[8] = P. berghei liver stage, 1 µM compound treatment (10 mM stocks), replicate 2, normalized, read-out: PbLuc 1uM growth rep2
[9] = P. berghei liver stage, 3 µM compound treatment (10 mM stocks), replicate 1, normalized, read-out: PbLuc 3uM growth rep1
[10] = P. berghei liver stage, 3 µM compound treatment (10 mM stocks), replicate 2, normalized, read-out: PbLuc 3uM growth rep2
[11] = 1 uM (compounds provided at 10 mM), column 11, read-out: Pb-Luc (P. berghei liver stage), % of control, lower concentration, first repeat
[12] = 1 uM (compounds provided at 10 mM), column 12, read-out: Pb-Luc (P. berghei liver stage), % of control, lower concentration, second repeat
[13] = 3 uM (compounds provided at 10 mM), column 8, read-out: Pb-Luc (P. berghei liver stage), % of control, higher concentration, first repeat
[14] = 3 uM (compounds provided at 10 mM), column 9, read-out: Pb-Luc (P. berghei liver stage), % of control, higher concentration, second repeat

Structure (SMILES)	AC50 [1]	CC50 at 48 h [2]	HepG2 1uM growth rep1 [3]	HepG2 1uM growth rep2 [3]	HepG2 3uM growth rep1 [3]	HepG2 3uM growth rep2 [3]	Log AC50 (M) [4]	activity at 1 µM [5, 7]	activity at 1 µM [5, 8]	activity at 3 µM [5, 9]	activity at 3 µM [5, 10]	viability at 48 h, 1 µM [6]	viability at 48 h, 3 µM [6]	activity at 1 µM [5, 11]	activity at 1 µM [5, 12]	activity at 3 µM [5, 13]	activity at 3 µM [5, 14]	HepG2 viability, % of control [3]	viability at 48 h [6]	Max Resp (signal direction of the dose response) ([5]; Method 1, Decrease = decreasing P. berghei viability with dose, Increase = increasing signal, Inactive = no dose response)
N#Cc1ccc(NC(=O)Nc2ccc(Cl)cc2)cc1 [MLS000104525-01]	5.31 µM	34.3 µM	95%	87%	72%	84%	-4.4643 M	86%	61%	6.45%	7%	–	–	–	–	–	–	–	–	–
COc1ccccc1CNCC(O)Cn1c2ccccc2c2ccccc21 (stereo not drawn) [MLS000391556-01]	–	34.3 µM	97%	92%	92%	93%	-4.4643 M	115%	98%	107%	96%	–	–	–	–	–	–	–	–	–
NS(=O)(=O)c1ccc(N/N=C/c2cn(-c3ccccc3)nc2-c2cccs2)cc1 [MLS000393371-01]	0.335 µM	21.7 µM	92%	91%	94%	94%	-4.6643 M	80%	57%	26%	21%	–	–	–	–	–	–	–	–	–
Cc1cccc(-c2cc3nc(C)c(C)c(NCCCn4ccnc4)n3n2)c1 [MLS000529525-01]	5.31 µM	48.5 µM	101%	92%	82%	93%	-4.3143 M	138%	123%	94%	144%	–	–	–	–	–	–	–	–	–
Cc1cccc(NC2=C/C(=N\S(=O)(=O)c3cccs3)c3ccccc3C2=O)c1 [MLS000585840-01]	0.168 µM	34.3 µM	–	–	–	–	-4.4643 M	–	–	–	–	113%	95%	90%	90%	37%	41%	–	–	–
Br.CCOC(=O)c1c(CSC(=N)N)n(-c2ccc(Br)cc2)c2cc(Br)c(OC(C)=O)cc12 [MLS000595146-01]	–	48.5 µM	–	–	–	–	-4.3143 M	–	–	–	–	105%	104%	–	–	–	–	100% and 96%	–	–
Cc1cc(Cl)c(S(=O)(=O)N2CCN(c3ccccn3)CC2)cc1OCC(=O)NC1CCCCC1 [MLS000693481-01]	0.668 µM	27.3 µM	–	–	–	–	-4.5643 M	–	–	–	–	91%	105%	102%	96%	68%	80%	–	–	–
CC1(C)Cc2ccccc2C2=NNC(=O)C2=N1 [MLS000709658-01]	3.35 µM	34.3 µM	98%	96%	90%	99%	-4.4643 M	117%	83%	68%	64%	–	–	–	–	–	–	–	–	–
O=C1NC(=S)S/C1=C\C=C\c1ccc([N+](=O)[O-])o1 [MLS000722913-01]	5.31 µM	13.7 µM	–	–	–	–	-4.8643 M	–	–	–	–	112%	101%	80%	77%	57%	67%	–	–	–
CCCN(CCC)CCCN=C(S)Nc1ccc2nc(N3CCCC3)cc(C)c2c1 [MLS000730709-01]	–	43.2 µM	–	–	–	–	-4.3643 M	–	–	–	–	112%	103%	141%	128%	67%	66%	–	–	–
COc1ccc2nc3cc(Cl)ccc3c(Nc3cc(C(C)C)c(O)cc3C)c2c1 [MLS000737404-01]	0.266 µM	43.2 µM	–	–	–	–	-4.3643 M	–	–	–	–	112%	95%	113%	97%	61%	53%	–	–	–
Cc1cc(N)c2cc(NC(=O)/C=C/c3ccccc3Cl)ccc2n1 [MLS000737665-01]	1.88 µM	43.2 µM	–	–	–	–	-4.3643 M	–	–	–	–	105%	108%	86%	67%	21%	37%	–	–	–
CC(C)CN(Cc1cc(=O)oc2cc(-c3ccccc3)c(O)cc12)CC(C)C [MLS000779012-01]	–	43.2 µM	–	–	–	–	-4.3643 M	–	–	–	–	98%	101%	87%	88%	59%	60%	–	–	–
N=c1c2c(n(Cc3ccc(F)cc3)c3c1CCC3)CCCC2 [MLS000856097-01]	2.99 µM	17.2 µM	–	–	–	–	-4.7643 M	–	–	–	–	105%	81%	60%	59%	19%	15%	–	–	–
ClC(Cl)(Cl)c1nc2ccccc2n2nncc12 [MLS001171504-01]	2.11 µM	43.2 µM	–	–	–	–	-4.3643 M	–	–	–	–	106%	95%	113%	83%	87%	102%	–	–	–
C/C(=N\Nc1ncnc2sc(C)c(C)c12)c1ccccn1 [MLS001176565-01]	1.33 µM	0.485 µM	55%	50%	36%	44%	-6.3143 M	11%	8%	6%	5%	–	–	–	–	–	–	–	–	–
CCOc1cccc(CNCCc2c(C)[nH]c3ccc(OC(F)(F)F)cc23)c1O.O=C(O)C(=O)O [MLS001198351-01]	2.37 µM	34.3 µM	97%	92%	70%	71%	-4.4643 M	46%	47%	9%	16%	–	–	–	–	–	–	–	–	–
CC(Sc1nc2ccccc2c(=O)n1C)C(=O)Nc1ccc2c(c1)OCCO2 (stereo not drawn) [MLS002161477-01]	–	43.2 µM	–	–	–	–	-4.3643 M	–	–	–	–	84%	–	–	–	–	–	–	84%	Inactive
